Measured values published in the supplement of paper PMC10307832.

How the values were obtained:
Test in all cases: relative viability (nuclei count vs DMSO), 5 days (fraction); higher = more cells survive
XMD8-85 + Pemetrexed = compound: CN1CCN(CC1)C2=CC(=C(C=C2)NC3=NC=C4C(=N3)N(C5=CC=CC=C5C(=O)N4C)C)OC [XMD8-85] + Nc1nc2[nH]cc(CCc3ccc(C(=O)N[C@@H](CCC(=O)O)C(=O)O)cc3)c2c(=O)[nH]1 [Pemetrexed] (partner 0.2 µM)
In short: (§1)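 Lung cancer cell lines in 1536-well plates were dosed by pin tool the day after seeding, either with one drug alone or with a fixed anchor-drug dose plus five library-drug doses (not always all listed) in √10 steps. After 5 days, cells were fixed and their nuclei stained in one step (final 0.05% Triton X-100, 1% formaldehyde, 1 ug/ml Hoechst), then counted on 4× images. Relative viability is the nuclei count in treated wells divided by that in vehicle wells. Values are medians of duplicate plates.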

XMD8-85 + Olaparib = compound: CN1CCN(CC1)C2=CC(=C(C=C2)NC3=NC=C4C(=N3)N(C5=CC=CC=C5C(=O)N4C)C)OC [XMD8-85] + O=C(c1cc(Cc2n[nH]c(=O)c3ccccc23)ccc1F)N1CCN(C(=O)C2CC2)CC1 [Olaparib] (partner 8 µM)
In short: as §1

4EGI-1 + Vorinostat = compound: O=C(O)C(Cc1ccccc1[N+](=O)[O-])=NNc1nc(-c2ccc(Cl)c(Cl)c2)cs1 (mixture of isomers) [4EGI-1] + O=C(CCCCCCC(=O)Nc1ccccc1)NO [Vorinostat] (partner 1 µM)
In short: as §1

4EGI-1 + Pictilisib = compound: O=C(O)C(Cc1ccccc1[N+](=O)[O-])=NNc1nc(-c2ccc(Cl)c(Cl)c2)cs1 (mixture of isomers) [4EGI-1] + CS(=O)(=O)N1CCN(Cc2cc3nc(-c4cccc5[nH]ncc45)nc(N4CCOCC4)c3s2)CC1 [Pictilisib] (partner 1 µM)
In short: as §1

Row | Cell Line | relative viability (XMD8-85 + Pemetrexed; first compound 0.08 µM) | relative viability (XMD8-85 + Pemetrexed; first compound 0.253 µM) | relative viability (XMD8-85 + Pemetrexed; first compound 0.8 µM) | relative viability (XMD8-85 + Pemetrexed; first compound 2.53 µM) | relative viability (XMD8-85 + Pemetrexed; first compound 8 µM) | relative viability (XMD8-85 + Olaparib; first compound 0.08 µM) | relative viability (XMD8-85 + Olaparib; first compound 0.253 µM) | relative viability (XMD8-85 + Olaparib; first compound 0.8 µM) | relative viability (XMD8-85 + Olaparib; first compound 2.53 µM) | relative viability (XMD8-85 + Olaparib; first compound 8 µM) | relative viability (4EGI-1 + Vorinostat; first compound 0.5 µM) | relative viability (4EGI-1 + Vorinostat; first compound 1.581 µM) | relative viability (4EGI-1 + Vorinostat; first compound 5 µM) | relative viability (4EGI-1 + Vorinostat; first compound 15.81 µM) | relative viability (4EGI-1 + Vorinostat; first compound 50 µM) | relative viability (4EGI-1 + Pictilisib; first compound 0.5 µM) | relative viability (4EGI-1 + Pictilisib; first compound 1.581 µM) | relative viability (4EGI-1 + Pictilisib; first compound 5 µM) | relative viability (4EGI-1 + Pictilisib; first compound 15.81 µM) | relative viability (4EGI-1 + Pictilisib; first compound 50 µM)
1 | SW 900 | 0.46 | 0.505 | 0.506 | 0.477 | 0.282 | 0.824 | 0.705 | 1.15 | 0.786 | 0.376 | 0.615 | 0.59 | 0.503 | 0.314 | 0.15 |  |  |  |  | 
2 | NCI-H520 | 0.709 | 0.697 | 0.75 | 0.595 | 0.361 | 0.343 | 0.366 | 0.293 | 0.305 | 0.236 | 0.877 | 0.73 | 0.887 | 0.773 | 0.153 | 0.332 | 0.315 | 0.378 | 0.367 | 0.162
3 | NCI-H358 | 0.165 | 0.176 | 0.175 | 0.164 | 0.183 | 0.508 | 0.565 | 0.625 | 0.691 | 0.445 | 0.609 | 0.613 | 0.663 | 0.319 | 0.0967 | 0.333 | 0.368 | 0.346 | 0.259 | 0.223
4 | NCI-H1650 | 0.376 | 0.384 | 0.384 | 0.306 | 0.294 | 0.877 | 0.91 | 0.951 | 0.699 | 0.303 | 0.637 |  | 0.649 | 0.356 | 0.157 | 0.671 |  | 0.659 | 0.351 | 0.235
5 | RERF-LC-KJ | 0.46 | 0.478 | 0.484 | 0.497 | 0.43 | 1.05 | 0.927 | 0.929 | 0.872 | 0.769 | 0.796 | 0.434 | 0.739 | 0.58 | 0.428 | 0.636 | 0.42 | 0.468 | 0.357 | 0.581
6 | LOU-NH91 | 0.281 | 0.333 | 0.311 | 0.295 | 0.378 | 0.944 | 0.922 | 0.917 | 0.92 | 0.695 | 0.993 |  | 0.964 | 0.782 | 0.529 | 0.532 |  | 0.539 | 0.478 | 0.484
7 | Calu-6 |  |  |  |  |  | 0.621 | 0.574 | 0.596 | 0.558 | 0.395 |  |  |  |  |  | 0.969 | 0.937 | 0.825 | 0.79 | 0.198
8 | HCC-15 | 0.202 | 0.216 | 0.212 | 0.207 | 0.187 | 0.745 | 0.67 | 0.7 | 0.699 | 0.64 | 0.863 | 0.812 | 0.809 | 0.686 | 0.513 | 0.921 | 0.705 | 0.755 | 0.728 | 0.574
9 | NCI-H23 | 0.546 | 0.677 | 0.607 |  | 0.4 | 0.313 | 0.308 | 0.302 | 0.282 | 0.254 | 0.779 |  | 0.612 | 0.58 | 0.165 | 0.481 |  | 0.561 | 0.579 | 0.343
10 | HCC-78 | 0.915 | 0.892 | 0.906 | 0.95 | 0.855 | 0.916 | 0.843 | 0.99 | 0.814 | 0.775 | 0.579 |  | 0.435 | 0.443 | 0.451 | 0.206 | 0.257 | 0.153 | 0.191 | 0.234
11 | NCI-H1299 |  |  |  |  |  | 1.02 | 1 | 0.97 | 0.892 | 0.578 |  |  |  |  |  | 0.863 | 0.824 | 1.03 | 0.732 | 0.163
12 | LC-2-ad | 0.261 | 0.26 | 0.253 | 0.274 | 0.249 | 0.771 | 0.687 | 0.701 | 0.581 | 0.415 | 0.736 | 0.62 | 0.617 | 0.356 | 0.207 | 0.655 | 0.419 | 0.485 | 0.214 | 0.142
13 | HCC-44 | 0.65 | 0.701 | 0.647 | 0.597 | 0.632 | 0.991 | 0.955 | 0.946 | 0.996 | 0.849 | 1.06 | 0.872 | 0.988 | 0.916 | 0.566 | 0.75 | 0.515 | 0.653 | 0.527 | 0.299
14 | A549 |  |  |  |  |  | 0.192 | 0.371 | 0.306 | 0.234 | 0.227 |  |  |  |  |  | 0.456 | 0.454 | 0.603 | 0.433 | 0.0907
15 | HCC-366 | 0.147 | 0.163 | 0.146 | 0.129 | 0.168 | 0.231 | 0.358 | 0.385 |  | 0.242 | 0.469 | 0.149 | 0.431 | 0.34 | 0.0704 | 0.222 |  | 0.119 | 0.0976 | 0.0789
16 | NCI-H2342 | 0.808 | 0.805 | 0.891 | 0.828 | 0.775 | 0.421 | 0.466 | 0.359 | 0.487 | 0.408 | 0.765 | 0.664 | 0.833 | 0.835 | 0.712 |  |  |  |  | 
17 | NCI-H1563 | 0.718 | 0.809 | 0.67 | 0.778 | 0.631 |  |  |  |  |  |  |  |  |  |  | 0.637 | 0.662 | 0.622 | 0.662 | 0.521
18 | IA-LM |  |  |  |  |  | 0.862 | 0.885 | 0.836 | 1.07 | 0.207 | 1.04 | 0.91 | 0.871 | 0.698 | 0.261 | 0.349 | 0.317 | 0.243 | 0.0957 | 0.08
19 | NCI-H522 | 0.762 | 0.916 | 1.01 | 1.08 | 0.825 | 0.699 | 0.632 | 0.615 | 0.537 | 0.568 | 0.812 | 0.903 | 0.954 | 1.03 | 0.634 |  |  |  |  | 
